Target: Neuraminidase (Influenza A virus (A/Puerto Rico/8/1934(H1N1)), UniProt P03468, H274Y)
Design: species or system Influenza A virus (A/California/04/2009(H1N1))

CCC(CC)O[C@@H]1C=C(C(=O)O)C[C@H](NC(C)=O)[C@H]1NC(C)=O
IC50: 1.38 µM

— ChEMBL document CHEMBL4251557 (Eur J Med Chem, 2017)
